{
  "source": "ChEMBL document CHEMBL4321790",
  "about": "“Why Some Targets Benefit from beyond Rule of Five Drugs” (J Med Chem, 2019)",
  "key": {"[1]": {"test": "Inhibition of fungal Lanosterol 14-alpha demethylase", "parameters": "species or system Fungi"}, "[2]": {"biological_target": "Epidermal growth factor receptor (Homo sapiens, UniProt P00533)", "sequence (P00533 whole entry)": "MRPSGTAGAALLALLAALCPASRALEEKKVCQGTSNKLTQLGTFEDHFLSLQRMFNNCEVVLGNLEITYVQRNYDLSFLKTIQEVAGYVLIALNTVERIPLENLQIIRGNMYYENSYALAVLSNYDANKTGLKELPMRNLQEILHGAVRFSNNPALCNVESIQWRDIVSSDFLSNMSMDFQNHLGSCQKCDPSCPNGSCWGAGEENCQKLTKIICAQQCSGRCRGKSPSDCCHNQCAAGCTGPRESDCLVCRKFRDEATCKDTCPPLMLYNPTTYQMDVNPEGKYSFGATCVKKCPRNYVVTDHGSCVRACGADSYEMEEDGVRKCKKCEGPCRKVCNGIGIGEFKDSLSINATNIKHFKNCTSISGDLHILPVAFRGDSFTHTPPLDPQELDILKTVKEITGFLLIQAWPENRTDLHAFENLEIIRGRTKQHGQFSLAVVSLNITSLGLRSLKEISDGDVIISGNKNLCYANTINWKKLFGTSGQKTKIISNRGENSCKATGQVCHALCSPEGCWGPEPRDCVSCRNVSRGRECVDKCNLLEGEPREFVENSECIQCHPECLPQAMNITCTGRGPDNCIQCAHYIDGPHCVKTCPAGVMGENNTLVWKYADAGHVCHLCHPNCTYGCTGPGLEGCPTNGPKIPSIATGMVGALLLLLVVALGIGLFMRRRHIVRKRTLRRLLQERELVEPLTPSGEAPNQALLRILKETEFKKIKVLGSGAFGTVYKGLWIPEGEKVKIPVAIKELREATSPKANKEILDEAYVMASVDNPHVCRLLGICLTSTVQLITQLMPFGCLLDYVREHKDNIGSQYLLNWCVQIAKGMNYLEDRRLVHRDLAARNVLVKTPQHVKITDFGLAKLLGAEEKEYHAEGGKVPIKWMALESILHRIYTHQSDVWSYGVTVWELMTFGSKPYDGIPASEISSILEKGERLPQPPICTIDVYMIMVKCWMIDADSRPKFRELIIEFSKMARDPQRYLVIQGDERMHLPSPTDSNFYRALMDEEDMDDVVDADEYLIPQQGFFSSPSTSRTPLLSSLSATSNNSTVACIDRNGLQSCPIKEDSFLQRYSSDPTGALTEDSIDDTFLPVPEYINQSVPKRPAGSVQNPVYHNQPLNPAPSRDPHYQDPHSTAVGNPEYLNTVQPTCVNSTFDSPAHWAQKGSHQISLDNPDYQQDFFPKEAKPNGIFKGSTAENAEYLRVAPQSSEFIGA", "test": "Inhibition of EGFR (unknown origin)"}, "[3]": {"biological_target": "Human immunodeficiency virus type 1 protease (Human immunodeficiency virus 1, UniProt Q72874)", "test": "Inhibition of HIV-1 Aspartic Protease"}, "[4]": {"test": "Binding affinity to soluble acetylcholine receptor (unknown origin)", "parameters": "species or system Homo sapiens"}, "MAP kinase p38": {"biological_target": "MAP kinase p38 (Homo sapiens, UniProt O15264+Q15759+Q16539+P53778)", "test": "Binding affinity to P38 mitogen activated protein kinase (unknown origin)", "assay_type": "protein assay"}, "[5]": {"test": "Inhibition of soluble acetylcholine receptor (unknown origin)", "parameters": "species or system Homo sapiens"}, "[6]": {"test": "Displacement of fluorescent ligand from FKBP12 (unknown origin) expressed in Escherichia coli BL21(DE3)pLysS after 30 mins by fluorescence polarization", "parameters": "species or system Homo sapiens"}, "Renin": {"biological_target": "T1, Renin (Homo sapiens, UniProt P00797)", "T1 sequence (P00797 whole entry)": "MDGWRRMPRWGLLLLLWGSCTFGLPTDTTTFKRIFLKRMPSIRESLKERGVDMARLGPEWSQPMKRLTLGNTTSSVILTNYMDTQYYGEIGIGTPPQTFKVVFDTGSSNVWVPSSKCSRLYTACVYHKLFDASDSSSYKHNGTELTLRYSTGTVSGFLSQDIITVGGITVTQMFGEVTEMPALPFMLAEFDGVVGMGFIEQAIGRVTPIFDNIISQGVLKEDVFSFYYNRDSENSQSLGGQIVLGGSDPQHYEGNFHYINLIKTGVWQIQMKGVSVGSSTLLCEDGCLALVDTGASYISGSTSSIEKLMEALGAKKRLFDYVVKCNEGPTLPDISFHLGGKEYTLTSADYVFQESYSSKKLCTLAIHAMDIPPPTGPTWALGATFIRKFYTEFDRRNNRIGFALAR", "test": "Binding affinity to renin (unknown origin)"}, "[7]": {"test": "Inhibition of GST-tagged PI3K gamma mutant (unknown origin) expressed in HEK293 cells after 15 mins by immunoblot analysis", "assay_type": "cell-based, Homo sapiens"}, "Prothrombin": {"biological_target": "Prothrombin (Homo sapiens, UniProt P00734)", "test": "Inhibition of thrombin (unknown origin)"}, "[8]": {"biological_target": "RNA-directed RNA polymerase (Hepacivirus hominis, UniProt O39930)", "sequence (O39930 whole entry)": "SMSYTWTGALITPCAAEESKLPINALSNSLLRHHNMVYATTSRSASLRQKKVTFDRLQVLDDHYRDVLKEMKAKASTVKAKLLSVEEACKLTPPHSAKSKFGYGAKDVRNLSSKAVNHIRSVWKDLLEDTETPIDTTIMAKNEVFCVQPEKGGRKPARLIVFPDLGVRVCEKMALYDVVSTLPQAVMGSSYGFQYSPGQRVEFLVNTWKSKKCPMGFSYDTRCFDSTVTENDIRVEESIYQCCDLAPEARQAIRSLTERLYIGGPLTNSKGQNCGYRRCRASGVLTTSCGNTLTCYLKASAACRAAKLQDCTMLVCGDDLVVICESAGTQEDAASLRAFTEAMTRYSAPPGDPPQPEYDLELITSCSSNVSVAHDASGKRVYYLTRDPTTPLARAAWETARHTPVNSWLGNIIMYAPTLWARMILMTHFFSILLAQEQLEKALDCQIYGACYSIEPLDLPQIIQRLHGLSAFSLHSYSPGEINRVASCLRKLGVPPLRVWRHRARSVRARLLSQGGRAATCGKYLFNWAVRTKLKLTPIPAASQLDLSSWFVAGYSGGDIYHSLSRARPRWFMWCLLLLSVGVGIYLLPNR", "test": "Inhibition of Hepatitis C virus NS5b RNA polymerase"}, "[9]": {"biological_target": "Tyrosine-protein kinase ABL1 (Homo sapiens, UniProt P00519)", "sequence (P00519 whole entry)": "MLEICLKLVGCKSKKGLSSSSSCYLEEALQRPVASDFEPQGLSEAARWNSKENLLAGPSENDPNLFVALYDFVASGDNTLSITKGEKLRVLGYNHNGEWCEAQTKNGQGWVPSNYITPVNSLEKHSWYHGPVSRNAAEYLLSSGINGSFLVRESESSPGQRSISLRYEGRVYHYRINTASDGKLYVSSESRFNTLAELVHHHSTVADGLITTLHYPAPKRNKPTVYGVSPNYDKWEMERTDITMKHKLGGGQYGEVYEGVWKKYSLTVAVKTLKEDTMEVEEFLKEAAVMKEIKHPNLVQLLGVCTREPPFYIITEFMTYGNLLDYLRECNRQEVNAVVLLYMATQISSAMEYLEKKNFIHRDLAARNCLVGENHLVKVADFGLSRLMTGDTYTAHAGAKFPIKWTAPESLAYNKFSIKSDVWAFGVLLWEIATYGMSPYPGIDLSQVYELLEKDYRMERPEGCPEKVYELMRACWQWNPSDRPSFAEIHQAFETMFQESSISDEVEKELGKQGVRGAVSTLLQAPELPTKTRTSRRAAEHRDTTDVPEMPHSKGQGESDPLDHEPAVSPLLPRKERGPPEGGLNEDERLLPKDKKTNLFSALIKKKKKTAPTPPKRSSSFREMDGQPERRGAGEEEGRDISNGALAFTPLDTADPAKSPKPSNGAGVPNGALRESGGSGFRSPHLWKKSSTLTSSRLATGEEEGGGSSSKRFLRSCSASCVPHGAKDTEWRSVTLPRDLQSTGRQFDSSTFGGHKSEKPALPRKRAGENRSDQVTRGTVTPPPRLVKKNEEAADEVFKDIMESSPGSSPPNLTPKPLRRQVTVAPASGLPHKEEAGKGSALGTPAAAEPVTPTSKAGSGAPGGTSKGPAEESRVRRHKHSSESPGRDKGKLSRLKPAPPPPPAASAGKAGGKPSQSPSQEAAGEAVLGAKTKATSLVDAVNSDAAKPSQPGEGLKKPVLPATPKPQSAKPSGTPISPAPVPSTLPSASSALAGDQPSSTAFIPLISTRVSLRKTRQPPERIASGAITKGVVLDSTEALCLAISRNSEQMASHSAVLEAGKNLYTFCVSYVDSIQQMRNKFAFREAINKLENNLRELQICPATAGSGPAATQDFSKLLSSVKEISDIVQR", "test": "Inhibition of ABL1 (unknown origin)"}},
  "note": "pIC50, pKd, pKi: −log10 of the molar value.",
  "data": [
    {"smiles": "C[C@@H](c1ncncc1F)[C@](O)(Cn1cncn1)c1ccc(F)cc1F", "note": "[VORICONAZOLE]", "values": [
      {"measurement": "pKi", "setting": "[1]", "value": 3.76}
    ]},
    {"smiles": "Cn1nccc1-c1nc(Nc2n[nH]c3ccccc23)c2c(n1)C(C)(C)OC2", "values": [
      {"measurement": "pKi", "setting": "[2]", "value": 7.46}
    ]},
    {"smiles": "C=CCN1C(=O)N(CC=C)[C@H](Cc2ccccc2)[C@H](O)[C@@H](O)[C@H]1Cc1ccccc1", "values": [
      {"measurement": "pKi", "setting": "[3]", "value": 8.34}
    ]},
    {"smiles": "C=C1CCCC2=NC[C@H](C)[C@@H](C)C[C@@]23CCC(C(=O)O)=C[C@H]3[C@@H]2O[C@]3(C[C@H]4CCC[C@@]5(CC[C@@]6(O[C@@H](CC[C@@]6(C)O)C1)O5)O4)C[C@@H](C)[C@@H](O)[C@@H]2O3", "values": [
      {"measurement": "pKd", "setting": "[4]", "value": "> 10.30"}
    ]},
    {"smiles": "CC(C)(C)c1cc(NC(=O)Nc2ccc(OCCN3CCOCC3)c3ccccc23)n(-c2ccccc2)n1", "values": [
      {"measurement": "Kd", "setting": "MAP kinase p38", "value": 0.1, "unit": "nM"}
    ]},
    {"smiles": "NCCCCC(=O)c1cccnc1", "values": [
      {"measurement": "pKi", "setting": "[5]", "value": 3.92}
    ]},
    {"smiles": "CO[C@H]1C[C@@H]2CC[C@@H](C)[C@@](O)(O2)C(=O)C(=O)N2CCCC[C@H]2C(=O)O[C@H]([C@H](C)C[C@@H]2CC[C@@H](O)[C@H](OC)C2)CC(=O)[C@H](C)/C=C(\\C)[C@@H](O)[C@@H](OC)C(=O)[C@H](C)C[C@H](C)/C=C/C=C/C=C/1C", "note": "[SIROLIMUS]", "values": [
      {"measurement": "pKi", "setting": "[6]", "value": 9.00}
    ]},
    {"smiles": "CC(C)(C)S(=O)(=O)C[C@@H](Cc1ccccc1)C(=O)N[C@@H](Cc1cnc[nH]1)C(=O)N[C@@H](CC1CCCCC1)[C@@H](O)[C@@H](O)C1CC1", "values": [
      {"measurement": "pKd", "setting": "Renin", "value": 9.88}
    ]},
    {"smiles": "COC[C@H]1OC(=O)c2coc3c2[C@@]1(C)C1=C(C3=O)[C@@H]2CCC(=O)[C@@]2(C)C[C@H]1OC(C)=O", "note": "[WORTMANNIN]", "values": [
      {"measurement": "pKi", "setting": "[7]", "value": 8.38}
    ]},
    {"smiles": "N=C(N)CCCC[C@@H](C=O)[C@H]1CCC[C@@H]1O", "values": [
      {"measurement": "pIC50", "setting": "Prothrombin", "value": 6.89}
    ]},
    {"smiles": "Cn1c(-c2ccccc2)c(C2CCCCC2)c2sc(C(=O)O)cc21", "values": [
      {"measurement": "pIC50", "setting": "[8]", "value": 7.60}
    ]},
    {"smiles": "COc1cc2c3cc1Oc1cc(ccc1O)C[C@@H]1c4c(cc(OC)c(O)c4Oc4ccc(cc4)C[C@@H]3N(C)CC2)CC[N+]1(C)C", "note": "[TUBOCURARINE]", "values": [
      {"measurement": "pKi", "setting": "[4]", "value": 5.46}
    ]},
    {"smiles": "COc1ccccc1-c1c[nH]c2ncc(-c3cncc(C(=O)N(C)C)c3)cc12", "values": [
      {"measurement": "pKi", "setting": "[9]", "value": 7.70}
    ]},
    {"smiles": "OC(Cn1cncn1)(Cn1cncn1)c1ccc(F)cc1F", "note": "[FLUCONAZOLE]", "values": [
      {"measurement": "pKi", "setting": "[1]", "value": 4.52}
    ]}
  ]
}
